Experimental data: US9943496B2, “Dietary supplement based on ethyl ferulate” (LABORATORIOS MINKAB, S. A. DE C. V., priority 2015, dated 2018)

How the values were obtained:
[1] = test system: heifers; test: Productive performance test of heifers supplemented with ethyl ferulate in the diet; assay type: in vivo, Bos taurus; conditions: for Final weight: last 30 days of intensive feeding; for Final weight / Feed conversion / Daily gain / Feed intake: mean ± standard error; for Feed conversion / Daily gain / Feed intake: last 30 days; for Feed conversion: feed consumption/daily gain
Procedure: Productive performance test was conducted in the feedlot of a commercial farm, located in the state of Sonora, Mexico, at an altitude of 210 meters above sea level, latitude 29° 05′ 56″ and longitude 110° 57′ 15″ (INEGI, 2012).
Prior to the start of the study, 270 cattle (heifers) commercial beef producers crosses (of racial influence mainly Bos taurus), which were divided into three lots with uniform power days, racial origin and composition were selected. The animals were weighed individually and identified with plastic earring different color, to be distributed randomly according to a block design (3) complete random. To facilitate the handling of heifers and scheduling your humane slaughter, each block was postponed one week and was formed by three pens with 30 animals each.
Once done animals blocks, each pen within each block was completely randomized one of the following treatments: • Treatment CONT: Animals receiving the basal diet without additive (control). • Treatment FE5: Animals receiving the basal diet supplemented the last 30 days of fattening stage 5 ppm of ethyl ferulate. • Treatment FE10: Animals receiving the basal diet supplemented the last 30 days of the fattening phase with 10 ppm of ethyl ferulate.
The initial live weight of the animals was 484.68±2.84 kg. All animals were fed a basal diet with a ratio of forage:concentrate of 20:80, which was formulated to contain 1.62 Mcal of net energy gain/kg of feed, 12.7% crude protein, 0.91% Calcium and 0.27% phosphorus. The amount of ethyl ferulate per ton of feed was first added to the mineral premix and later it was incorporated into the automated experimental ration.
All animals were individually weighed at the beginning and end of the experimental test, for which an electronic scale Tru-Test 300 (Tru-Test Corporation, New Zealand) equipped with recording memory was used. Daily weight gain (GDP) was estimated by the difference between initial and final weight and divided by 30 (the feeding period).
Feed intake was recorded daily for corral, for which both the food offered and refused was weighed. Feed conversion per pen/treatment with the average food consumption ratio between GDP was also calculated.
(§1) Productive performance data were analyzed by ANOVA with a design of a randomized complete block using the method of generalized linear models (GLM) using initial weight as a covariate; data carcass quality were analyzed under a completely randomized design blocks. The variance analysis (mixed models procedure), included as a fixed effect to experimental treatments and as a random effect the initial weight of animals for productive performance data and final weight for carcass quality. The study data shelf life was analyzed using analysis of variance of two ways, considering the fixed effects of treatment and storage time. When differences between treatments were detected in productive performance variables and carcass quality, comparisons of means were performed by orthogonal contrasts. The following contrasts were tested: Contrast 1: Control vs FE5+FE10; Contrast 2: FE5 vs FE10. For data quality meat in the study of oxidative stability, the comparison of means was by the Tukey test. All data were processed in the statistical package NCSS (NCSS Version 8.0, 2012).

[2] = test system: heifers; test: Sacrifice and evaluation of carcass quality of supplemented heifers; assay type: in vivo, Bos taurus; conditions: for Backfat / Cold carcass yield / Hot yield carcass / Rib eye area / Cold carcass weight / Hot carcass weight: last 30 days; for Cold carcass weight: 24 h postmortem; for Hot carcass weight: mean ± standard error; for Marbling: USDA marbling score (Little 500-599, Modesto 600-699); for % de Choice or greater: percentage of carcass classified Choice or higher
Procedure: Once the productive performance test was finished, the animals were sacrificed following the current regulations.
The pH was measured at 45 min and 24 h postmortem in the Longissimus dorsi (LD) at the 12th intercostal space using a portable digital potentiometer brand HANNA HI 99163 (Mettler-Toledo Process Analytical Inc., Wilmington, Mass., USA). The weight of the hot carcass was recorded, then the carcasses were cooled to 0° C. for 24 h.
At 24 h postmortem the weight of the cold carcass was measured. In at least 36 carcasses per treatment, area in cm^2 rib eye, the thickness of back fat in mm, was evaluated. The degree of marbling was also evaluated following USDA guidelines (2000): Trace (300-399), Light (400-499), Little (500-599), Modest (600-699), Moderate (700-799), Slightly abundant (800-899). These determinations were made in the LD muscle to level 12th intercostal space. Finally, the quality level of the channel according to USDA (2000) was estimated, based on the degree of marbling and carcass physiological maturity: Select − (400-449), Select + (450-499) Choice − (500-599), Choice medium (600-699), Choice + (700-799), Prime (800 or greater).
as §1

[3] = compared with ferulic acid; cited from earlier work
[4] = test system: β receptors; conditions: bovine satellite cells, in vitro; cited from earlier work
[5] = test system: swine; conditions: 50 ppm, swine confinement; cited from earlier work
[6] = contrast C1: Control vs FE5+FE10, P<0.05
[7] = FE supplemented vs control, P<0.05

SMILES: CCOC(=O)/C=C/c1ccc(O)c(OC)c1 [ethyl ferulate]
- Final weight ([1]; FE5: 5 ppm/day): 519.58 ± 5.4 kg
- Feed conversion ([1]; FE5: 5 ppm/day): 8.78 ± 0.6 kg
- Daily gain ([1]; FE5: 5 ppm/day): 1.13 ± 0.04 kg
- Feed intake ([1]; FE5: 5 ppm/day): 8.11 ± 0.07 kg
- Final weight ([1]; FE10: 10 ppm/day): 520.20 ± 5.63 kg
- Feed conversion ([1]; FE10: 10 ppm/day): 7.25 ± 0.27 kg
- Daily gain ([1]; FE10: 10 ppm/day): 1.23 ± 0.04 kg
- Feed intake ([1]; FE10: 10 ppm/day): 8.09 ± 0.07 kg
- Less feed required to gain one kilogram of live weight ([1]; FE supplemented heifers vs control): 4.3 kg
- Improvement in feed conversion relative to control [1, 6]: 35%
- Increase of daily gain (GDP) relative to control [1, 6]: 26%
- Thickness of the dorsal fat, effect of treatments ([2]; 5 and 10 ppm vs control, P>0.05): not affected by treatments
- Marbling, 10 ppm FE regarding 5 ppm FE ([2]; 10 ppm vs 5 ppm): higher marbling
- Backfat ([2]; FE5: 5 ppm/day): 14.60 ± 1.05 mm
- Cold carcass yield ([2]; FE5: 5 ppm/day): 61.77 ± 0.16%
- Hot yield carcass ([2]; FE5: 5 ppm/day): 62.38 ± 0.15%
- Rib eye area ([2]; FE5: 5 ppm/day): 85.67 ± 2.28 cm^2
- Cold carcass weight ([2]; FE5: 5 ppm/day): 320.81 ± 3.25 kg
- Hot carcass weight ([2]; FE5: 5 ppm/day): 323.97 ± 3.25 kg
- Marbling ([2]; FE5: 5 ppm/day): 578.57 ± 16
- % de Choice or greater ([2]; FE5: 5 ppm/day): 66.7%
- Backfat ([2]; FE10: 10 ppm/day): 15.82 ± 0.84 mm
- Cold carcass yield ([2]; FE10: 10 ppm/day): 61.68 ± 0.19%
- Hot yield carcass ([2]; FE10: 10 ppm/day): 62.39 ± 0.19%
- Rib eye area ([2]; FE10: 10 ppm/day): 86.60 ± 1.87 cm^2
- Cold carcass weight ([2]; FE10: 10 ppm/day): 320.50 ± 3.19 kg
- Hot carcass weight ([2]; FE10: 10 ppm/day): 324.19 ± 3.23 kg
- Marbling ([2]; FE10: 10 ppm/day): 637.14 ± 15
- % de Choice or greater ([2]; FE10: 10 ppm/day): 80%
- Hot carcass weight (PCC) greater than control ([2]; FE supplemented heifers vs control, P<0.001): 1.80%
- Increase of cold carcass weight (PCF) vs control [2, 7]: 1.86%
- Marbling of supplemented compared to non supplemented animals [2, 7]: More marbling
- Increase in carcass weight vs control ([2]; hot carcass, FE supplemented vs control): more than 5 kg
- Antibacterial and antioxidant capacity [3]: very similar to those of ferulic acid

SMILES: COc1cc(/C=C/C(=O)O)ccc1O [AF, Ferulic acid]
- Recognition by β receptors on the cell membrane [4]: recognized by β receptors
- Back fat thickness over the control group [5]: decrease
